The source of these data is patent US20250171392A1, “CRYSTALLIZATION OF 4-HYDROXYACETOPHENONE FROM ETHANOL AND ETHYL ACETATE” (SYMRISE AG, priority 2022, published 2025).

In one data set the test system is Pseudomonas aeruginosa. As to conditions: when used in cosmetics; Daily Chemical Industry: 2015, 45:269; cited from earlier work.
Another data set concerns Aspergillus brasiliensis. As to conditions: when used in cosmetics; Daily Chemical Industry: 2015, 45:269; cited from earlier work.
Data set [1] is described as follows: Solubility testing (dissolution time) of purified 4-hydroxyacetophenone (0.5 wt.-%) in cold water. It counts as physicochemical. As to conditions: for Time needed until purified 4-HAP is fully dissolved: 0.5 wt.-% 4-HAP, 99.50 wt.-% water, solvent at 17.5-18.5° C., stirred at 500 rpm at 20-21° C.
Data set [2] can be described thus: Solubility testing (dissolution time) of purified 4-hydroxyacetophenone (0.5 wt.-%) in cold 1,2-pentanediol (5 wt.-%) in water. It counts as physicochemical. Particulars: for Time needed until purified 4-HAP is fully dissolved: 0.5 wt.-% 4-HAP, 5 wt.-% 1,2-pentanediol, 94.50 wt.-% water, solvent at 17.5-18.5° C., stirred at 500 rpm at 20-21° C.
Data set [3] in a line: Solubility testing (dissolution time) of purified 4-hydroxyacetophenone (0.5 wt.-%) in cold 1,2-pentanediol (3 wt.-%) and glycerin (5 wt.-%) in water. It counts as physicochemical. As to conditions: for Time needed until purified 4-HAP is fully dissolved: 0.5 wt.-% 4-HAP, 3 wt.-% 1,2-pentanediol, 5 wt.-% glycerin (99.5%), 91.50 wt.-% water, solvent at 17.5-18.5° C., stirred at 500 rpm at 20-21° C.

Turning to `CC(=O)c1ccc(O)cc1` [4-hydroxyacetophenone], in the data set with Pseudomonas aeruginosa, the “ability to restrain Pseudomonas aeruginosa” value is recorded as “a certain ability to restrain”. For the same compound, in the data set with Aspergillus brasiliensis, the “ability to kill Aspergillus brasiliensis” value is recorded as “great ability to kill”.
Consider `CC(=O)c1ccc(O)cc1` [Example 1a, 4-hydroxyacetophenone], for which, in data set [1], the “Time needed until purified 4-HAP is fully dissolved” value came to 24 min and the “dissolution time in cold water (in words, compared with the other samples)” value was “by far the shortest dissolution time”. In addition, in data set [2], the “Time needed until purified 4-HAP is fully dissolved” value stood at 12 min. Also, the “dissolution time in cold 1,2-pentanediol (5 wt.-%) in water (in words, compared with the other samples)” value in data set [2] (cold 1,2-pentanediol (5 wt.-%) in water) is reported as “by far the shortest dissolution time”. In addition, in data set [3], the “Time needed until purified 4-HAP is fully dissolved” value worked out at 15 min; the “dissolution time in cold 1,2-pentanediol (3 wt.-%) and glycerin (5 wt.-%) in water (in words, compared with the other samples)” value was “by far the shortest dissolution time”.
On to `CC(=O)c1ccc(O)cc1` [Example 1b, 4-hydroxyacetophenone], for which, in data set [1], the “Time needed until purified 4-HAP is fully dissolved” value came out at 22 min and the “dissolution time in cold water (in words, compared with the other samples)” value was “by far the shortest dissolution time”. For the same compound, in data set [3], the “Time needed until purified 4-HAP is fully dissolved” value was 19 min; the “dissolution time in cold 1,2-pentanediol (3 wt.-%) and glycerin (5 wt.-%) in water (in words, compared with the other samples)” value is “by far the shortest dissolution time”.
Take `CC(=O)c1ccc(O)cc1` [Example 2, 4-hydroxyacetophenone]: the “Time needed until purified 4-HAP is fully dissolved” value in data set [1] was determined as 115 min; in data set [2], 56 min; in data set [3], 53 min.
In the same order, the values of `CC(=O)c1ccc(O)cc1` [Example 3, 4-hydroxyacetophenone] are 35 min, 22 min and 30 min.
For `CC(=O)c1ccc(O)cc1` [Example 4, 4-hydroxyacetophenone] the same measures were 41 min, 33 min and 24 min.
`CC(=O)c1ccc(O)cc1` [Example 5, 4-hydroxyacetophenone]: the “Time needed until purified 4-HAP is fully dissolved” value amounted to 35 min in data set [1], 26 min in data set [2] and 22 min in data set [3].
Regarding `CC(=O)c1ccc(O)cc1` [Example 6, 4-hydroxyacetophenone], the results for the “Time needed until purified 4-HAP is fully dissolved” value in data set [2] and in data set [3] were 35 min and 28 min, respectively.
Consider `CC(=O)c1ccc(O)cc1` [Example 7, 4-hydroxyacetophenone], for which the “Time needed until purified 4-HAP is fully dissolved” value in data set [1] is 51 min; in data set [2], 36 min; in data set [3], 33 min.
For `CC(=O)c1ccc(O)cc1` [Example 8, 4-hydroxyacetophenone] the same measures were 44 min, 29 min and 27 min.
In the same order, the values of `CC(=O)c1ccc(O)cc1` [Example 9, 4-hydroxyacetophenone] are 29 min, 17 min and 21 min.
In the case of `CC(=O)c1ccc(O)cc1` [Example 10, 4-hydroxyacetophenone], the “Time needed until purified 4-HAP is fully dissolved” value in data set [1] was 67 min; in data set [3] it was 42 min.
